# Laboratory results: patent publication US11478433B2, “Nanomaterials with enhanced drug delivery efficiency” (Yale University, priority 2017, dated 2022)
# What was measured:
# [1] = Penetration through GI tract after oral gavage (IVIS, confocal microscopy)
# Procedure: DTA SNPs encapsulating a near-infrared fluorescent dye, IR780, were prepared and administered to mice via oral gavage. After one hour, the GI tract was isolated, extensively washed, and imaged by IVIS®.
# [2] = in vivo, cited from earlier work
# [3] = tested on: MDA-MB-231 flank tumor model; assay: Intravenous treatment of flank tumor model with PTX-loaded OA SNPs; assay type: in vivo; settings: over 30 days following treatment
# Procedure: Next, drug delivery via encapsulation in OA SNPs was assayed in treating the flank tumor model.
# MDA-MB-231 tumors = assay: Oral treatment of mice bearing MDA-MB-231 tumors; assay type: in vivo; settings: twice a week
# Procedure: The therapeutic benefit of PTX-loaded DTX SNPs was evaluated for treatment of […]. Mice bearing MDA-MB-231 tumors of ˜50 mm^3 size were treated twice a week with orally injected saline (as a control), empty DTA SNPs, free PTX, or PTX-loaded DTX SNPs (denoted as PTX-SNPs). Tumor volumes were measured three times a week. Mice were euthanized when tumor volume reached ˜1000 mm^3, at which point the tumors were excised and fixed in formalin for immunohistochemistry. Serial sections were obtained and stained with TUNEL for analysis of cellular apoptosis. The growth curve was plotted using the mean of the tumor volumes for each treatment group, at each time point.
# [4] = tested on: human breast cancer MDA-MB-231 cells; assay: Toxicity on breast cancer cells in vitro; assay type: cell-based
# Procedure: FIG. 7 is a line graph showing the percentage of growth (%) of human breast cancer MDA-MB-231 cells over different concentrations (μg/mL) of different samples: PTX, DTA SNPs (denoted in this graph as SNPs), PTX-encapsulated DTA SNPs (denoted as PTX-SNPs).
# Human breast adenocarcinoma cell line, MDA-MB-231 cells, were purchased from American Type Culture Collection (ATCC, Rockville, Md., USA). Cells were grown in DMEM medium (Invitrogen) supplemented with 10% fetal bovine serum (FBS, Invitrogen), 100 units/mL penicillin, and 100 µg/mL streptomycin (Invitrogen) in a 37° C. incubator containing 5% CO2.
compound,measurement,setting,value
CCN(CC)c1ccc2c(-c3ccccc3C(=O)O)c3ccc(=[N+](CC)CC)cc-3oc2c1.[Cl-] [rhodamine B],fluorescence in intestinal villi,"[1]; oral administration, confocal microscopy",limited fluorescence
CCCN1/C(=C/C=C2\CCCC(/C=C/C3=[N+](CCC)c4ccccc4C3(C)C)=C2Cl)C(C)(C)c2ccccc21.[I-] [IR780],location in GI tract,"[1]; one hour after oral gavage, IR780, IVIS imaging",located mostly in the stomach
GLP-1,half-life in the circulatory system,[2],< 2 min
"CC(=O)O[C@H]1C(=O)[C@@]2(C)[C@H]([C@H](OC(=O)c3ccccc3)[C@]3(O)C[C@H](OC(=O)[C@H](O)[C@@H](NC(=O)c4ccccc4)c4ccccc4)C(C)=C1C3(C)C)[C@]1(OC(C)=O)CO[C@@H]1C[C@@H]2O [PTX, paclitaxel]",oral bioavailability,[2]; po,less than 2%
same,tumor volume / tumor growth,[3],grew substantially
same,reduction of tumor volumes compared to saline control,MDA-MB-231 tumors,21%
same,toxicity on MDA-MB-231 cells,[4],comparable toxicity
"C[C@@H]1CC[C@H]2[C@@H](C)C(=O)O[C@@H]3O[C@@]4(C)CC[C@@H]1[C@]32OO4 [Artemisinin, artemisinin]",bioavailability,[2],less than 10%
